Each block holds one compound with its values, some of them ahead of it.
Legend:
[1] = system: deoxycorticosterone acetate (DOCA)/salt-induced model of FSGS; experiment: DOCA/salt-induced mouse model of FSGS: renoprotection, body weight, blood pressure, organ/body weight ratios; type: in vivo, mice (129/sv strain); details: DOCA/salt mice, 4 weeks
Experimental: 10-nitro-9(E)-octadec-9-enoic acid, given orally after onset of renal injury, was evaluated for efficacy in a model for Focal Segmental Glomerular Sclerosis (FSGS) in humans. […] Mice were uni-nephrectomized and, after two weeks, implanted subcutaneously with DOCA (50 mg, 21-day release) or placebo sustained release pellets, with pellet replacement 3 weeks later. All groups, except the sham control group, also received 1% NaCl in tap water. 10-nitro-9(E)-octadec-9-enoic acid (daily oral gavage, 2.5 or 12.5 mg/kg) or enalapril (20 mg/kg/day in drinking water) treatments began 2 weeks after the first DOCA implantation and continued for 4 weeks. Enalapril was included for comparison because it is used as standard of care for FSGS and this is a positive control for the model.
(§1) Induction of model: Male mice (129/sv strain) were purchased from Taconic Labs. The animals were uninephrectomized (Unx) at 6 weeks of age by the vendor and shipped one week after surgery. At 2 weeks post Unx, a DOCA or placebo pellet (21-day release pellets, 50 mg/pellet, Innovative Research of America, Sarasota, Fla.) was implanted s.c. All mice were then placed on a semisynthetic diet which contained a moderate fat content and a low phytoestrogen/anti-oxidant level, which approximates a normal human diet (4). A second DOCA or placebo pellet was implanted three weeks later.
(§2) Treatment: Mice were treated with placebo, 10-nitro-9(E)-octadec-9-enoic acid at a dose of 2.5 and 12.5 mg/kg, or enalapril (standard of care) for 4 weeks by oral gavage starting 2 weeks after the first DOCA implantation. One percent NaCl in tap water was given to each group except the sham control group. Body weight was measured weekly, and doses were readjusted based on the current body weight. Urine and blood samples were collected prior to treatment and at week 2 and 4 of treatment. Mice were terminated at week 4. Data is presented as the mean+SEM for the number of animals listed in each group.

[2] = system: deoxycorticosterone acetate (DOCA)/salt-induced model of FSGS; experiment: DOCA salt study: glomerular filtration rate (inulin); type: in vivo, mice (129/sv strain); details: DOCA/salt mice; enalapril 20 mg/kg/d in drinking water, 4 week timepoint
Experimental: Induction of model: Male mice (129/sv strain) were purchased from Taconic Labs. The animals were uninephrectomized (Unx) at 6 weeks of age by the vendor and shipped one week after surgery. At 2 weeks post Unx, a DOCA or placebo pellet (21-day release pellets, 50 mg/pellet, Innovative Research of America, Sarasota, Fla.) was implanted s.c. All mice were then placed on a semisynthetic diet which contained a moderate fat content and a low phytoestrogen/anti-oxidant level, which approximates a normal human diet (4). A second DOCA or placebo pellet was implanted three weeks later. […] One percent NaCl in tap water was given to each group except the sham control group. Body weight was measured weekly, and doses were readjusted based on the current body weight. Urine and blood samples were collected prior to treatment and at week 2 and 4 of treatment. Mice were terminated at week 4. Data is presented as the mean+SEM for the number of animals listed in each group. Glomerular Filtration Rate: Glomerular filtration rate (GFR) was performed at the 4 week timepoint using a FIT-GFR test kit for inulin according to manufacturer's instructions (BioPal, Worcester, Mass.). […] Serum was isolated and quantified by an inulin ELISA. Inulin serum clearance was determined by nonlinear regression using a one phase exponential decay formula according to manufacturer's instructions.

[3] = system: deoxycorticosterone acetate (DOCA)/salt-induced model of FSGS; experiment: DOCA salt study: RT-PCR analysis of kidney gene expression; type: in vivo, mice (129/sv strain); details: DOCA/salt mice kidney
Experimental: as §1, §2
RT-PCR Analysis of Gene Expression: A slice of kidney from each mouse was placed in Trizol solution (Invitrogen) immediately after harvesting and stored at −80° C. until analysis. Tissues were homogenized using a bead mill in 0.5 ml of Trizol solution and total RNA was extracted with chloroform (Sigma) and purified using standard RNeasy mini kit (Qiagen), with on column DNase 1 (Qiagen) digestion to avoid non-specific fluorescence emission derived from the recognition of contaminating genomic DNA by the probe, according to manufacturer's recommendation. RNA samples were eluted in 30 μl of nuclease-free water and quantified using a Nanodrop. cDNA was generated from 2 μg of RNA by using Clontech Sprint PowerScript reagents according to manufacturer's protocol. Fluorogenic probes specific for genes assayed in the report were purchased from Applied Biosystems. PCR amplification and analysis of PCR reaction were performed and monitored using an ABI Prism 7900HT Sequence Detection System (TaqMan, Perkin-Elmer Applied Biosystem). Data analysis was carried out by using the Sequence Detection Systems v2.3 program (Applied Biosystems). For each cDNA sample the Ct value of each target sequence was normalized to reference gene (Ribosomal RNA-18S), and shown as fold changes to control group. Statistical analyses for gene expression data was performed using a two-tailed Student's t-test.

[4] = system: deoxycorticosterone acetate (DOCA)/salt-induced model of FSGS; experiment: DOCA salt study: urinary isoprostane and tetranor-PGDM by LC-MS; type: in vivo, mice (129/sv strain); details: DOCA/salt mice; end time point
Experimental: as §1, §2
Isoprostanes are a unique series of prostaglandin-like compounds formed in vivo via a non-enzymatic mechanism involving the free radical-initiated peroxidation of arachidonic acid. It has been shown that 8-iso-PGF2a (15-F2t-isoprostane) is the isoprostane that correlates best with increasing oxidative stress. Therefore, to assess the effect of treatment on oxidative stress, this isoform was measured using LC-MS. Also measured was tetranor-PGDM, a urinary metabolite of prostaglandin D2. […] On the other hand, elevated tetranor-PGDM was lowered with treatment of 10-nitro-9(E)-octadec-9-enoic acid and enalapril at the end time point (FIG. 18).

[5] = system: deoxycorticosterone acetate (DOCA)/salt-induced model of FSGS; experiment: DOCA salt study: histological assessment of kidney; type: in vivo, mice (129/sv strain); details: DOCA/salt mice; enalapril 20 mg/kg/d in drinking water, 4 weeks
Experimental: as §1, §2
Histological Assessment: Formalin fixed, paraffin embedded kidneys were sectioned at 3 microns and stained with hematoxylin and eosin (H&E), periodic acid-Schiff (PAS) and Masson's Trichrome for histological analysis. Slides were blindly evaluated by an experienced pathology investigator. Glomerular and tubular pathology, interstitial inflammation and interstitial fibrosis were semi-quantitatively scored on a scale of 0-4 as follows: 0=normal; 1=mild; 2=moderate; 3=marked; 4=severe.
Glomerular hypertrophy was evaluated by measuring glomerular area and expressed as a mean value of 50 glomeruli per kidney. Glomerular hypertrophy is an important marker for diabetic and hypertensive-mediated chronic kidney disease. […] This finding is consistent with unchanged gene expression profile for podocyte markers (Table 2), and seems reasonable given that the disease was relatively modest.

[6] = system: deoxycorticosterone acetate (DOCA)/salt-induced model of FSGS; experiment: DOCA salt study: serum and urine analyses; type: in vivo, mice (129/sv strain); details: DOCA/salt mice, enalapril 20 mg/kg/d in drinking water
Experimental: Induction of model: Male mice (129/sv strain) were purchased from Taconic Labs. The animals were uninephrectomized (Unx) at 6 weeks of age by the vendor and shipped one week after surgery. At 2 weeks post Unx, a DOCA or placebo pellet (21-day release pellets, 50 mg/pellet, Innovative Research of America, Sarasota, Fla.) was implanted s.c. All mice were then placed on a semisynthetic diet which contained a moderate fat content and a low phytoestrogen/anti-oxidant level, which approximates a normal human diet (4). A second DOCA or placebo pellet was implanted three weeks later. […] One percent NaCl in tap water was given to each group except the sham control group. Body weight was measured weekly, and doses were readjusted based on the current body weight. Urine and blood samples were collected prior to treatment and at week 2 and 4 of treatment. Mice were terminated at week 4. Data is presented as the mean+SEM for the number of animals listed in each group. Serum and urine analyses: Blood samples were collected from the retro-orbital sinus and samples were separated to serum. Serum and urine creatinine (enzymatic assay), blood urea nitrogen (BUN), and serum cholesterol were measured using a Cobas 400 plus bioanalyzer (Roche Diagnostics, IN). Urine samples were collected for 24 h using metabolic cages. Urine albumin was measured by immunoassay Albuwell M (Exocell Inc., Philadelphia, Pa.). Immuno-ELISA according to manufacturer's instructions was used to measure urine nephrin (Exocell Inc., Philadelphia, Pa.) and MCP-1 (Thermal Scientific, Waltham, Mass.). Kim-1 was measured using the E-90KIM Mouse ELISA Kit (Immunology Consultants Laboratory, Portland, Oreg.). Statistical analyses for serum and urine data was performed using a two-tailed Student's t-test.

[7] = Pharmacokinetic interaction study with pravastatin and Vytorin in healthy males: PK; details: Vytorin 10 mg/20 mg, Day 12 with 10-nitro-9(E)-octadec-9-enoic acid 150 mg daily versus Day 2 alone
healthy male subjects = experiment: Pharmacokinetic interaction study in healthy males: safety and tolerability; type: in vivo, human; details: pravastatin 40 mg, 10 healthy males
Experimental: Safety and tolerability was evaluated throughout the study. The timing of discharge was determined by the Investigator or designee based on safety and tolerability assessment. On dosing days, subjects remained in the research unit for a minimum of 1 h after dosing prior to discharge. On Day 4, on the first day of 10-nitro-9(E)-octadec-9-enoic acid dosing, subjects remained in the unit for 4 to 6 h after dosing prior to discharge to assess safety and tolerability.
Safety and PK assessments were evaluated throughout the study. During the in-house portion of the study, urine was collected over the 24-h period on Day 2 and Day 12.
Safety was evaluated by physical examinations; adverse events (AEs); vital signs (blood pressure, heart rate, respiratory rate); clinical laboratory values (hematology, biochemistry, and urinalysis), specifically, serum Mg and CPK and electrocardiograms (ECGs).
Triplicate ECGs were obtained just prior to the start of dosing on Day 1 and single ECGs were obtained at all other time points. The average of the 3 ECG interval measurements at the pre-dose time point was considered as baseline. All 12-Lead ECGs were obtained after the subject has rested in a fully supine position for at least 10 minutes. There were no clinically significant abnormalities reported on any electrocardiogram (ECG) parameter. There were no QT/QTcF interval prolongations observed during the study.

[8] = enalapril 20 mg/kg/d, normalized to 18S, fold changes to control group, mean ± SEM

Compound: CCOC(=O)[C@H](CCc1ccccc1)N[C@@H](C)C(=O)N1CCC[C@H]1C(=O)O [Enalapril, reference compound]
blood pressure (mean arterial) ([1]; all treatments): none of the treatments, including enalapril, had a significant effect | kidney/body weight and heart/body ratios ([1]; enalapril 20 mg/kg/d in drinking water): no effect | GFR (inulin method) [2]: trend toward an increase | gene expression of MCP-1, osteopontin, collagen III, fibronectin and PAI-1 (mRNA, qRT-PCR) ([3]; enalapril 20 mg/kg/d in drinking water, 4 weeks): neither the high dose 10-nitro-9(E)-octadec-9-enoic acid nor enalapril had an effect | Nephrin gene expression [3, 8]: 1.091 ± 0.14 | Podocin gene expression [3, 8]: 0.9991 ± 0.095 | urinary tetranor-PGDM [4]: lowered | glomerular hypertrophy (glomerular area, mean of 50 glomeruli per kidney) [5]: did not have an effect | glomerulosclerosis: average scores and percent of glomerular damage (sclerosis) [5]: not significantly reduced | Kim-1 in urine, relative to the DOCA group [6]: trended to be decreased | albumin excretion ([6]; 4 weeks): markedly reduced | plasma cholesterol ([6]; 4 weeks): reduced | urinary nephrin levels ([6]; 4 weeks): markedly reduced

decrease of mean AUC(0-t) on co-administration [7]: 5% | decrease of mean Cmax on co-administration [7]: 20%
Compound: O=C1[C@H](CC[C@H](O)c2ccc(F)cc2)[C@@H](c2ccc(O)cc2)N1c1ccc(F)cc1 [ezetimibe]

Compound: CC[C@H](C)C(=O)O[C@H]1C[C@H](O)C=C2C=C[C@H](C)[C@H](CC[C@@H](O)C[C@@H](O)CC(=O)O)[C@H]21 [pravastatin, reference compound]
subjects with abdominal discomfort after administration (healthy male subjects): 1 subject

increase of mean AUC(0-t) on co-administration [7]: 25% | increase of mean Cmax on co-administration [7]: 10%
Compound: CCC(C)(C)C(=O)O[C@H]1C[C@@H](C)C=C2C=C[C@H](C)[C@H](CC[C@@H]3C[C@@H](O)CC(=O)O3)[C@H]21 [simvastatin]

Source: patent US10537541B2, “Treatment of focal segmental glomerular sclerosis (FSGS) using therapeutically effective oral doses of 10-nitro-9(E)-octadec-9-enoic acid” (Complexa, Inc., priority 2015, dated 2020)
